Data: ChEMBL document CHEMBL1201862, “PubChem BioAssay data set” (2004)
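Five concentrations, 48 hours, 96-well plates. The concentration for 50% growth inhibition is given as GI50.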 Calls of active or inactive are those of the source. Cut-off read from the data, not from the text of the source: active = GI50 up to about 1.1 µM and inactive = higher.

Key:
Assay in all cases: NCI-60 cell line screen, 48 h
HOP-18 = system: HOP-18
DMS-114 = system: DMS-114
DLD-1 = system: DLD-1
SNB-78 = system: SNB-78
LXFL 529 = system: LXFL 529
BT-549 = system: BT-549
KM-20L2 = system: KM-20L2
XF498 = system: XF498
RXF 631 = system: RXF 631

For `COc1ccc(/C=N/N=C(\N)NO)c(Cl)c1O`, the GI50 (HOP-18) was 2.22 µM (inactive), the GI50 (DMS-114) was 5.9 µM (inactive) and the GI50 (DLD-1) was 25.5 µM (inactive). For the same compound, the GI50 (SNB-78) was 34.1 µM (inactive) and the GI50 (LXFL 529) was 2.89 µM (inactive).
In the case of `CCOC(=O)c1c2ccccc2n2c(=O)n(C)nnc12`, the GI50 (BT-549) is reported as > 100 µM (inactive).
In the case of `O=c1[nH]c(=O)n(C2CC(O)C(CO)O2)cc1/N=N/NCc1ccccc1` (centres undefined), the GI50 (BT-549) is reported as > 100 µM (inactive).
For `Cc1ccccc1NC(=O)/C=N/O`, the GI50 (HOP-18) was > 100 µM (inactive), the GI50 (DMS-114) was > 100 µM (inactive) and the GI50 (DLD-1) was > 100 µM (inactive). The GI50 (KM-20L2) was 16.9 µM (inactive) and the GI50 (LXFL 529) was > 100 µM (inactive).
For `CCOC(=O)C1=NN(c2ccccc2)C(=O)/C1=C\NC(=S)C(N)=S`, the GI50 (BT-549) was 35 µM (inactive).
In the case of `COc1ccc(/C(Cl)=C(\C=O)c2ccc(OC)c(OC)c2)cc1OC`, the GI50 (HOP-18) is reported as > 98.2 µM (inactive), the GI50 (DMS-114) is reported as > 90.2 µM (inactive) and the GI50 (DLD-1) is reported as > 92 µM (inactive). For the same compound, the GI50 (XF498) was > 88.9 µM (inactive), the GI50 (KM-20L2) was > 100 µM (inactive) and the GI50 (BT-549) was > 100 µM (inactive). For the same compound, the GI50 (SNB-78) was > 100 µM (inactive).
In the case of `Nn1c(SCC(=O)NCc2ccccc2)nc2ccccc2c1=O`, the GI50 (BT-549) is reported as 73.3 µM (inactive).
`COC(c1ccccc1)C(c1ccccc1)N1CCOCC1` (centres undefined) was tested, and the GI50 (HOP-18) was > 100 µM (inactive), the GI50 (DMS-114) was > 100 µM (inactive) and the GI50 (DLD-1) was > 100 µM (inactive). For the same compound, the GI50 (XF498) was 53 µM (inactive), the GI50 (KM-20L2) was > 100 µM (inactive) and the GI50 (SNB-78) was > 100 µM (inactive). For the same compound, the GI50 (LXFL 529) was > 100 µM (inactive).
For `O=C1C(Cl)C(c2ccccc2O)N1n1cnc2ccccc2c1=O` (centres undefined), the GI50 (HOP-18) was 37 µM (inactive), the GI50 (DMS-114) was 20 µM (inactive) and the GI50 (DLD-1) was 67 µM (inactive). The GI50 (XF498) was 5.32 µM (inactive), the GI50 (KM-20L2) was 78.3 µM (inactive) and the GI50 (SNB-78) was 26.2 µM (inactive). For the same compound, the GI50 (LXFL 529) was 61.1 µM (inactive).
For `COC(=O)c1c(OC(C)=O)ccc2c1c1c(n2C)C(=O)c2ccccc2C1=O`, the GI50 (BT-549) was 17 µM (inactive).
`O=[N+]([O-])C(=C(Sc1ccccc1)Sc1ccccc1)C(Cl)=C(Cl)Cl` was tested, and the GI50 (BT-549) was 1.18 µM (inactive).
In the case of `COc1cc2c3c(n(Cc4ccccc4)c(=O)c2cc1OC)-c1ccccc1C3=O`, the GI50 (BT-549) is reported as > 100 µM (inactive).
In the case of `O=P(O)(O)c1ccc(-c2ccc(I)cc2)cc1`, the GI50 (BT-549) is reported as > 100 µM (inactive).
For `COC1CCC(OS(C)(=O)=O)C(CO)O1` (centres undefined), the GI50 (DLD-1) was > 100 µM (inactive), the GI50 (XF498) was > 100 µM (inactive) and the GI50 (KM-20L2) was > 100 µM (inactive). For the same compound, the GI50 (LXFL 529) was > 100 µM (inactive).
In the case of `O=C1Nc2cccc3cc(NCC(O)CCl)cc1c23` (centres undefined), the GI50 (BT-549) is reported as 39.9 µM (inactive).
With `C/C=C/[C@H]1O[C@@](O)([C@@H](C)[C@H](O)[C@H](C)[C@H]2OC(=O)/C(OC)=C/C(C)=C/[C@@H](C)[C@@H](O)[C@@H](CC)[C@@H](O)[C@H](C)C/C(C)=C/C=C/[C@@H]2OC)C[C@H](OC2CC(O)C(O)C(C)O2)[C@@H]1C` (some centres undefined) the GI50 (BT-549) was < 0.0075 µM (active).
For `C=CCN(C(C)=O)c1cc(OCc2ccccc2)c2c(c1)c(C)cn2S(=O)(=O)c1ccccc1`, the GI50 (BT-549) was 11.4 µM (inactive).
`COc1cc(/C=C2\CCC/C(=C\c3ccc(OC(=O)CCCCC4CCSS4)c(OC)c3)C2=O)ccc1OC(=O)CCCCC1CCSS1` (centres undefined) was tested, and the GI50 (BT-549) was > 100 µM (inactive).
In the case of `CCO/C=N/C1=C(C#N)C(c2ccc(OC)c(OC)c2)c2c(-c3ccccc3)nn(-c3ccccc3)c2O1` (centres undefined), the GI50 (BT-549) is reported as 8.13 µM (inactive).
With `Cc1ccc(NC(=O)NC23CC4CC(CC(F)(C4)C2)C3)cc1` the GI50 (DMS-114) was 46.6 µM (inactive), the GI50 (DLD-1) was > 100 µM (inactive) and the GI50 (XF498) was > 100 µM (inactive). The GI50 (KM-20L2) was 45.9 µM (inactive), the GI50 (SNB-78) was > 100 µM (inactive) and the GI50 (LXFL 529) was 88.7 µM (inactive).
For `Cc1cc(C)c2c(n1)S(=O)(=O)N(CCCN1CCN(c3cccc(Cl)c3)CC1)C(C(=O)c1ccccc1)=C2O`, the GI50 (BT-549) was 52.6 µM (inactive).
`COc1ccc(C2CC(=O)CC(c3ccc(OC)cc3)C23C(=O)NC(=O)NC3=O)cc1` (centres undefined) was tested, and the GI50 (BT-549) was 32.7 µM (inactive).
`CS/C(=N\c1ccccc1Cl)NC(=O)c1ccc(Br)cc1` was tested, and the GI50 (HOP-18) was 25.5 µM (inactive), the GI50 (DMS-114) was > 100 µM (inactive) and the GI50 (DLD-1) was > 100 µM (inactive). The GI50 (XF498) was 46.2 µM (inactive), the GI50 (KM-20L2) was > 100 µM (inactive) and the GI50 (SNB-78) was 19.1 µM (inactive). The GI50 (LXFL 529) was 79.4 µM (inactive).
For `COc1cc(/C=C2\C[C@H]3[C@@H]4CCc5cc(OCCN6CCCC6)ccc5[C@H]4CC[C@]3(C)C2=O)cc(OC)c1OC`, the GI50 (BT-549) was 15.5 µM (inactive).
`COc1ccc(C2CC3(c4ccccc4)ON=C(c4ccccc4)N3c3ccccc3S2)cc1` (centres undefined) was tested, and the GI50 (BT-549) was > 100 µM (inactive).
`O=C(Nn1c(-c2ccccc2)nc2ccccc2c1=O)c1ccccn1` was tested, and the GI50 (BT-549) was > 100 µM (inactive).
`CN(NC(=O)c1ccco1)C1=NCCCCN1` was tested, and the GI50 (BT-549) was > 100 µM (inactive).
`Cc1ccccc1NC(=O)/C(=N\NC(N)=S)C(C#N)c1ccccc1` (centres undefined) was tested, and the GI50 (HOP-18) was > 100 µM (inactive), the GI50 (DMS-114) was 72.4 µM (inactive) and the GI50 (DLD-1) was > 100 µM (inactive). For the same compound, the GI50 (KM-20L2) was > 100 µM (inactive), the GI50 (RXF 631) was > 100 µM (inactive) and the GI50 (SNB-78) was > 100 µM (inactive). The GI50 (LXFL 529) was > 100 µM (inactive).
In the case of `CC(C)C1=CC23CCC4C(C)(C(=O)O)CCCC4(C)C2CC1C1C(=O)N(c2ccc(C(=O)O)cc2)C(=O)C13` (centres undefined), the GI50 (BT-549) is reported as > 100 µM (inactive).
With `C/C=C1/CN2CCC3(O)c4ccccc4N4C=C(C(=O)OC)C1CC2C43O` (centres undefined) the GI50 (BT-549) was > 100 µM (inactive).
In the case of `CC12CCC(=O)C[C@H]1CCC(OC=O)C2Br` (some centres undefined), the GI50 (HOP-18) is reported as > 100 µM (inactive), the GI50 (DMS-114) is reported as > 100 µM (inactive) and the GI50 (DLD-1) is reported as > 100 µM (inactive). For the same compound, the GI50 (XF498) was > 100 µM (inactive), the GI50 (KM-20L2) was > 100 µM (inactive) and the GI50 (LXFL 529) was > 100 µM (inactive).
With `O=C(NNC(=O)c1ccccc1O)c1ccccc1O` the GI50 (BT-549) was 0.0426 µM (active).
In the case of `CCC[C@H]1C(=O)N=C(N)N1C(=O)OCc1ccccc1`, the GI50 (BT-549) is reported as > 100 µM (inactive).
